Data published in patent US5830697A, “P-glycoprotein mutant resistant to cyclosporin modulation” (The Board of Trustees of the Leland Stanford Junior …, priority 1997, dated 1998).
Read-outs that look alike come from different tables or passages of the source.

Assays:
[1] = test system: MES-SA/DxP5002 (DxP) cells; experiment: Growth inhibition (MTT) assay, with or without MDR modulators; conditions: for Fold resistance: DxP cells
Experimental: Cells and Tissue Culture. […] Monolayer cultures of MES-SA cells and its variants were grown in McCoy's medium (Irvine Scientific, Santa Ana, Calif.) supplemented with 10% newborn calf serum (Gibco, Grand Island, N.Y.), 2 mM L-glutamine, and antibiotics(100 U/ml penicillin, 100 μg/ml streptomycin).
Growth Inhibition Assay. Approximately 8000 cells per well were seeded in 96 well plates and incubated with or without drugs for 72 hr at 37° C. in an atmosphere of 5% CO2. Growth inhibition was evaluated by the MTT colorimetric assay in triplicate or quadruplicate as previously described. The absorbance was measured with a ThermoMax microplate reader (Molecular Devices, Menlo Park, Calif.). […] The doubling times of MES-SA, D×5, and D×P were determined as previously described.
(§1) Reversal of MDR by Modulators. […] The modulation ratio was obtained by comparing IC50 s in the presence and absence of modulators.

MES-SA/Dx5 (Dx5) cells = experiment: as above; type: cell-based, human
Experimental: (§2) Cells and Tissue Culture. Details of the development and characterization of the human cell line MES-SA and its MDR variant MES-SA/Dx5 (D×5), which were derived from sarcoma elements of a uterine mixed Mullerian tumor, are described in Harker and Sikic (1985) Cancer Research 45:3810-3815. MES-SA/DxP5002 (DxP) cells were derived from Dx5.05 cells (D×5 cells selected and maintained at a DOX concentration of 0.5 μM) by step-wise selection in the presence of increasing DOX concentrations (from 40 nM up to 0.5 μM) and a constant PSC 833 concentration at 2 μM over a one-year period. Monolayer cultures of MES-SA cells and its variants were grown in McCoy's medium (Irvine Scientific, Santa Ana, Calif.) supplemented with 10% newborn calf serum (Gibco, Grand Island, N.Y.), 2 mM L-glutamine, and antibiotics(100 U/ml penicillin, 100 μg/ml streptomycin).
(§3) Growth Inhibition Assay. Approximately 8000 cells per well were seeded in 96 well plates and incubated with or without drugs for 72 hr at 37° C. in an atmosphere of 5% CO2. Growth inhibition was evaluated by the MTT colorimetric assay in triplicate or quadruplicate as previously described. The absorbance was measured with a ThermoMax microplate reader (Molecular Devices, Menlo Park, Calif.). The IC50 (drug concentration resulting in 50% inhibition of MTT dye formation, compared to controls) was determined directly from semi-logarithmic dose-response curves. The doubling times of MES-SA, D×5, and D×P were determined as previously described.
as §1

MES-SA cells = experiment: as above; type: cell-based, human; conditions: MES-SA cells
Experimental: as §2, §3, §1

[2] = biological target: P-gp of DxP cells (Phe335/336 deletion) (Homo sapiens, UniProt P08183, DEL335-335)
P-gp of DxP cells (Phe335/336 deletion), sequence (P08183 with tags, fused parts or gaps DEL335-335): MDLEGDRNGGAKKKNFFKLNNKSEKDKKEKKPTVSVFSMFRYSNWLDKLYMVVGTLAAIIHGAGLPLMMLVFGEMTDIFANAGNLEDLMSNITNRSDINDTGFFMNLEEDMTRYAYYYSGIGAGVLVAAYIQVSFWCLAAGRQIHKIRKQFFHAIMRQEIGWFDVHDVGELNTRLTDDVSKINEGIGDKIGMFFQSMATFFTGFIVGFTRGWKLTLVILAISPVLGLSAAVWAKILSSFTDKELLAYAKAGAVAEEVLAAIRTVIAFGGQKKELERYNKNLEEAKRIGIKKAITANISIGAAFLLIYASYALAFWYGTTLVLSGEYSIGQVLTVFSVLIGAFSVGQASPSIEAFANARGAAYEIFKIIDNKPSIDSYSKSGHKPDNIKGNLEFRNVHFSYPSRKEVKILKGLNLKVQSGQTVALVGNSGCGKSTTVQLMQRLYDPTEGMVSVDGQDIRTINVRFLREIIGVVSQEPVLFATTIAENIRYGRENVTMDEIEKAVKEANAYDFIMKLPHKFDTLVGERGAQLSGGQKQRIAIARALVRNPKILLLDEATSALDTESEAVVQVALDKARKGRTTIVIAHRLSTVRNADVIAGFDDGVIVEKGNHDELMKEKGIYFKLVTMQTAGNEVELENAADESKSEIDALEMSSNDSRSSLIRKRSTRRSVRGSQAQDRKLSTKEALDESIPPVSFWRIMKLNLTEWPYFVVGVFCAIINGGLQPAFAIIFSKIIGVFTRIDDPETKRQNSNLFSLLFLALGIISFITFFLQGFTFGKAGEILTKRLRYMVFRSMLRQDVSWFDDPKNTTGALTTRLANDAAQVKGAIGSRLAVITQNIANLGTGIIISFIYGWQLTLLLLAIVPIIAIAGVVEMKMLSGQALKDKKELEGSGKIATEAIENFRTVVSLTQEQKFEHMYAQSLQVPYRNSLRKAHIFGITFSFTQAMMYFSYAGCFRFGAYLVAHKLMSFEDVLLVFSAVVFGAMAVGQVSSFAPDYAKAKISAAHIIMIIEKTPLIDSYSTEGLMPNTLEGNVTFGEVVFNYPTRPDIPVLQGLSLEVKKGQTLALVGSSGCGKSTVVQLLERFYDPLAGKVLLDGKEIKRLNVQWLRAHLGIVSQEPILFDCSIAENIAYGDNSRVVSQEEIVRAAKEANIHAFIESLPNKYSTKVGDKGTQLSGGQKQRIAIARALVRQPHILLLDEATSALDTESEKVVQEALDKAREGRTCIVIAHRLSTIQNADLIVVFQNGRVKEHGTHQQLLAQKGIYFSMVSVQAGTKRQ
Experimental: (§5) Photoaffinity Labeling with [^25 -I]-iodoarylazidoprazesin and [^3 H]-Azidopine. […] These preparations were incubated at 25° C. for 1 hour in the dark, followed by a 20 min exposure to a 366 nm UV source (UVP, Inc., San Gabriel, Calif.). 50 μl of loading buffer was added and proteins separated on an 8% SDS-polyacrylamide gel, dried, and analyzed by autoradiography.

Dx/PAS cells = experiment: MTT assay, DxP subclone; type: cell-based, human
Experimental: as §3, §1
(§4) Clonal Analysis of D×P cells. Subcloning of cells was performed by limiting dilution. Both resistant and revertant clones were analyzed for the MDR phenotype, drug accumulation, and rt-PCR or heteroduplex as described above.

Dx/PDS cells = experiment: MTT assay, DxP subclone; type: cell-based, human
Experimental: as §3, §1, §4

Dx/PBS cells = experiment: MTT assay, DxP subclone; type: cell-based, human
Experimental: as §3, §1, §4

Dx/PFS cells = experiment: MTT assay, DxP subclone; type: cell-based, human
Experimental: as §3, §1, §4

Dx/PJS cells = experiment: MTT assay, DxP subclone; type: cell-based, human
Experimental: as §3, §1, §4

Dx/PGS cells = experiment: MTT assay, DxP subclone; type: cell-based, human
Experimental: as §3, §1, §4

Dx/PCS cells = experiment: MTT assay, DxP subclone; type: cell-based, human
Experimental: as §3, §1, §4

Dx/PMS cells = experiment: MTT assay, DxP subclone; type: cell-based, human
Experimental: as §3, §1, §4

Dx/PIS cells = experiment: MTT assay, DxP subclone; type: cell-based, human
Experimental: as §3, §1, §4

Dx/PES cells = experiment: MTT assay, DxP subclone; type: cell-based, human
Experimental: as §3, §1, §4

P-gp of Dx5 cells = P-gp of Dx5 cells (Homo sapiens, UniProt P08183)
P-gp of Dx5 cells, sequence (P08183 whole entry): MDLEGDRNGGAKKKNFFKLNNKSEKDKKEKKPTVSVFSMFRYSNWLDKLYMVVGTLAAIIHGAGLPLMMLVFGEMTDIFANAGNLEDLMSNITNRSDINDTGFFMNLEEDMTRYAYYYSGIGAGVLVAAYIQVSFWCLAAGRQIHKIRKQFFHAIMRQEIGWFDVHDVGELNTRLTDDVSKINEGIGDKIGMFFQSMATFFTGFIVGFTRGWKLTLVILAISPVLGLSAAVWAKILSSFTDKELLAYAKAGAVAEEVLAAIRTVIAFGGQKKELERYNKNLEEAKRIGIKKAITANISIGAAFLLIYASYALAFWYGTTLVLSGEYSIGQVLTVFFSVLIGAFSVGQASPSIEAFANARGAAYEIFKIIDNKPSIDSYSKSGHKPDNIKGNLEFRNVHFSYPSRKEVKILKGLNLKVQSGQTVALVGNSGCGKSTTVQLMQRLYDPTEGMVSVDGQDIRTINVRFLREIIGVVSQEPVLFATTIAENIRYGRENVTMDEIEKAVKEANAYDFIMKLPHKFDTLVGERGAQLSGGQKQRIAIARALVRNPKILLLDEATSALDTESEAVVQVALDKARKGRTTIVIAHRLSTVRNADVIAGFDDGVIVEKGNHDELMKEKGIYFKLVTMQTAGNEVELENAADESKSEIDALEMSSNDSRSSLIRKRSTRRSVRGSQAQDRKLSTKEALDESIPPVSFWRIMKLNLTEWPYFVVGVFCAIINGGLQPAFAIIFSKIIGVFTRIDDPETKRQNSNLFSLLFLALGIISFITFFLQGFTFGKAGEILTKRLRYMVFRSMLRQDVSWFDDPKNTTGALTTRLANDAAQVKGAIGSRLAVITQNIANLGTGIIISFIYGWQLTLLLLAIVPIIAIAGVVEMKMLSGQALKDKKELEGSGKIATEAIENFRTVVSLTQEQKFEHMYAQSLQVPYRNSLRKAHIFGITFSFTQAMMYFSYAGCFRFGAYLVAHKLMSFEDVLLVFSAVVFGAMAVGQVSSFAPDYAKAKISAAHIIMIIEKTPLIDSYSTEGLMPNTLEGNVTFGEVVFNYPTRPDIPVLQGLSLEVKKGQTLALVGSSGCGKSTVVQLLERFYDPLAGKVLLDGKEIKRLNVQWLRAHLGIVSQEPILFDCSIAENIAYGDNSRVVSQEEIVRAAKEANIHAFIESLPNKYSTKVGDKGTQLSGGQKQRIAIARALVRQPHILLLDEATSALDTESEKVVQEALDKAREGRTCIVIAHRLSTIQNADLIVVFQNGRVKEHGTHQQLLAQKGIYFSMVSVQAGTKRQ
Experimental: as §5

Dx5 cells = experiment: Rh-123 retention, flow cytometry; type: cell-based, human
Experimental: Flow Cytometric Analysis. The flow cytometric analysis of Rh-123 retention and P-gp expression were determined by a dual laser flow cytometer (FACS-II™; Becton Dickinson Corp., Mountain View, Calif.). Double labeling with Rh-123 and the monoclonal antibody UIC2 (Immunotech Coporation, Westbrook, Me.) was performed as previously described. Briefly, following the Rh-123 incubation step, cells were treated with UIC2 (40 μg/ml) and then reacted with either Texas Red or FITC-conjugated goat anti-mouse IgG2a secondary antibody (Caltag, So. San Francisco, Calif,). Cells were centrifuged through a calf serum cushion, resuspended in 200 μl of modified ice-cold Hank's balanced salt solution, and analyzed by flow cytometry.

DxP cells = experiment: Cellular accumulation of [3H]-labeled drugs; type: cell-based, human; conditions: [3H]-labeled drug, 1 hr
Experimental: Cellular Accumulation of [^3 H]-Daunorubicin, [^3 H]-Vinblastine, and [^3 H]Cyclosporine. lntracellular drug accumulation was quantified using radiolabeled drugs in a modified assay. The cells were seeded in 35×10 mm tissue culture dishes (Falcon, Becton Dickinson, Lincoln Park, N.J.), at 1×10^6 cells/dish. After overnight incubation, the growth medium was replaced with serum-free McCoy's 5A medium supplemented with 40 mM Hepes buffer (Sigma Chemicals, St. Louis, Mo.). Radiolabeled drugs were added at the appropriate concentration and incubated for 1 hr at 37° C. The medium was aspirated and cell pellet solubilized in 4% SDS at 65° C. for 1 hr. Ecolite™ scintillation cocktail (INC Biochemicals, Costa Mesa, Calif.) was added and radioactivity determined on an LS-9000 scintillation counter (Beckman Instruments, Brea, Calif.). All values were normalized to protein content.

[3] = no modulator, relative to MES-SA

With `CC[C@]1(O)C[C@@H]2CN(CCc3c([nH]c4ccccc34)[C@@](C(=O)OC)(c3cc4c(cc3OC)N(C)[C@H]3[C@@](O)(C(=O)OC)[C@H](OC(C)=O)[C@]5(CC)C=CCN6CC[C@]43[C@@H]65)C2)C1` [Vinblastine] the Fold resistance ([1]; +2 μM PSC 833) was 12 fold, the Fold resistance ([1]; +3 μM cyclosporin A) was 7 fold and the Fold resistance ([1]; +6 μM Verapamil) was 3 fold. The “Fold resistance” value [1, 3] was 14 fold, the “Dx5/DxP, fold of resistance difference in DxP cells compared with parental Dx5 cells” value ([1]; DxP vs Dx5) was 17 fold and the Fold resistance (MES-SA/Dx5 (Dx5) cells; +2 μM PSC 833) was 1 fold. The Fold resistance (MES-SA/Dx5 (Dx5) cells; +3 μM cyclosporin A) was 6 fold, the Fold resistance (MES-SA/Dx5 (Dx5) cells; +6 μM Verapamil) was 4 fold and the “Fold resistance” value (MES-SA/Dx5 (Dx5) cells; [3]) was 243 fold. For the same molecule, the IC50 (MES-SA cells; Homo sapiens, 72 hr MTT, read-out: IC50 of drug-sensitive MES-SA cells (values in parenthesis)) was 4 nM, the Fold resistance (MES-SA cells; +2 μM PSC 833) was 0.3-1 fold and the Fold resistance (MES-SA cells; +2 μM PSC 833, listed as vinblastine) was 0.5 fold. For the same molecule, the Fold resistance (MES-SA cells; +3 μM cyclosporin A) was 0.5-1 fold, the Fold resistance (MES-SA cells; +6 μM Verapamil) was 0.4-1 fold and the “Fold resistance” value (MES-SA cells; no modulator, 72 hr MTT) was 1 fold. The “Displacement of [3H]-azidopine photoaffinity labeling” value [2] was “resistant to the displacement”, the “Effect on [125I]-iodoarylazidoprazosin photoaffinity labeling of P-gp” value (shortened to “Effect … of P-gp”) ([2]; 100 μM) was “abolished detectable P-gp labeling” and the “Effect … of P-gp” value ([2]; 0.1 and 10 μM) was “enhanced photoaffinity binding”. The “fold resistance relative to MES-SA” value (Dx/PAS cells; + PSC) was 5 fold, the “fold resistance relative to MES-SA” value (Dx/PAS cells; no modulator) was 15 fold and the “fold resistance relative to MES-SA” value (Dx/PDS cells; + PSC) was 6 fold. For the same molecule, the “fold resistance relative to MES-SA” value (Dx/PDS cells; no modulator) was 20 fold, the “fold resistance relative to MES-SA” value (Dx/PBS cells; + PSC) was 1 fold and the “fold resistance relative to MES-SA” value (Dx/PBS cells; no modulator) was 3 fold. For the same molecule, the “fold resistance relative to MES-SA” value (Dx/PFS cells; + PSC) was 8 fold, the “fold resistance relative to MES-SA” value (Dx/PFS cells; no modulator) was 21 fold and the “fold resistance relative to MES-SA” value (Dx/PJS cells; + PSC) was 10 fold. For the same molecule, the “fold resistance relative to MES-SA” value (Dx/PJS cells; no modulator) was 19 fold, the “fold resistance relative to MES-SA” value (Dx/PGS cells; + PSC) was 1 fold and the “fold resistance relative to MES-SA” value (Dx/PGS cells; no modulator) was 2 fold. The “fold resistance relative to MES-SA” value (Dx/PCS cells; + PSC) was 3 fold, the “fold resistance relative to MES-SA” value (Dx/PCS cells; no modulator) was 8 fold and the “fold resistance relative to MES-SA” value (Dx/PMS cells; + PSC) was 2 fold. The “fold resistance relative to MES-SA” value (Dx/PMS cells; no modulator) was 5 fold, the “fold resistance relative to MES-SA” value (Dx/PIS cells; + PSC) was 1 fold and the “fold resistance relative to MES-SA” value (Dx/PIS cells; no modulator) was 2 fold. For the same molecule, the “fold resistance relative to MES-SA” value (Dx/PES cells; + PSC) was 1 fold, the “fold resistance relative to MES-SA” value (Dx/PES cells; no modulator) was 3 fold and the “Effect … of P-gp” value (P-gp of Dx5 cells; 100 μM) was “abolished detectable P-gp labeling”. For the same molecule, the “Effect … of P-gp” value (P-gp of Dx5 cells; 0.1 and 10 μM) was “effectively competed”.

For Rhodamine-123 [Rh-123], the “Cellular accumulation of Rh-123” value (Dx5 cells) was “markedly decreased”.

In the case of [^3 H]-vinblastine, the “Intracellular accumulation in DxP relative to Dx5 cells” value (DxP cells) is reported as “approximately 3 fold”.
